This is an account of results in patent publication US8080517B2, “Cell-permeable peptide inhibitors of the JNK signal transduction pathway” (Xigen SA, priority 2005, dated 2011).

Where a SMILES comes first, the peptide text is derived from it. [ ]: non-standard residue; d: D form.

Test [1] concerns endogenous JNK activity in HepG2 cells. In words: Inhibition of endogenous IL-1β-induced JNK activity in HepG2 cells, AlphaScreen all-in one well approach. The conditions noted are these: FIG. 6 panel d. It counts as cell-based. The method, then:
HepG2 cells were seeded at 3,000 cells/well the day prior the experiment. Then, increasing concentrations of either interleukin-1β [IL-1β(▪)] or tumor necrosis factor α[TNFα(●)] (a) were added to activate JNK for 30 minutes. Cells were lysed in 20 mM Hepes, 0.5% Tween pH 7.4 and processed for AlphaScreen JNK. (b) Z′ for the JNK activity induced by 10 ng/ml IL-1β and measured in 384 wells/plate (n=96). (c) Inhibition of endogenous IL-1β-induced JNK activity with chemical JNK inhibitors [staurosporin (∘) and SP600125 (●)]. (d) Effect of peptidic inhibitors L-TAT-IB1(s) according to SEQ ID NO: 9 [here abbreviated as L-JNKi (▪)) and D-TAT-IB1(s) according to SEQ ID NO: 11 (here abbreviated as D-JNKi (□)) and JBDs (●) (corresponds to L-JNKI without the TAT sequence)] on […] dependent JNK activity. All panels are representative of three independent experiments (n=3).
Methods: Alphascreen Kinase Assay
Principle: AlphaScreen is a non-radioactive bead-based technology used to study biomolecular interactions in a microplate format. The acronym ALPHA stands for Amplified Luminescence Proximity Homogenous Assay. […]
Kinase reagents (B-GST-cJun, anti P-cJun antibody and active JNKS) were first diluted in kinase buffer (20 mM Tris-HCl pH 7.6, 10 mM MgCl2, 1 mM DTT, 100 μM Na3VO4, 0.01% Tween-20) and added to wells (15 μl). […] AlphaScreen signal was analyzed directly on the Fusion or En Vision apparatus.

The test system of test [2] is WiDr cells. As to the kind of experiment: Irradiation (30 Gy) induced apoptosis. In kind it is cell-based, human. The conditions noted are these: 1 μM added 30 minutes before 30 Gy, analyzed 48 hours later. The method, then:
JNK is also activated by ionizing radiation. To determine whether inventive TAT-IB(s) peptides would provide protection against radiation-induced JNK damage, “WiDr” cells were irradiated (30 Gy) in presence or absence of D-TAT, inventive L-TAT-IB1(s) or inventive D-TAT-IB1(s) peptides (1 μM added 30 minutes before irradiation). Control cells (CTRL) were not irradiated. Cells were analyzed 48 hours later by means of PI and Hoechst 3342 staining, as described above. N=3, SEM are indicated.

Test [3] relates to recombinant JNK1, JNK2, or JNK3 kinases. In words: Solid phase kinase assay, phosphorylation of c-Jun, ATF2 and Elk1 by recombinant JNKs. It counts as biochemical. The conditions noted are these: GST-Jun (aa 1-73), 0-250 μM dosage study. As to the method: The effects of the peptides on JNKs-mediated phosphorylation of their target transcription factors were investigated in vitro. Recombinant and non activated JNK1, JNK2 and JNK3 were produced using a TRANSCRIPTION AND TRANSLATION rabbit reticulocyte lysate kit (Promega) and used in solid phase kinase assays with c-Jun, ATF2 and Elk1, either alone or fused to glutathione-S-transferase (GST), as substrates. Dose response studies were performed wherein inventive L-TAT or L-TAT-IB1(s) peptides (0-25 μM) were mixed with the recombinant JNK1, JNK2, or JNK3 kinases in reaction buffer (20 mM Tris-acetate, 1 mM EGTA, 10 mM p-nitrophenyl-phosphate (pNPP), 5 mM sodium pyrophosphate, 10 mM p-glycerophosphate, 1 mM dithiothreitol) for 20 minutes. The kinase reactions were then initiated by the addition of 10 mM MgCl2 and 5 pCi […] and 1 μg of either GST-Jun (aa 1-89), GST-AFT2 (aa 1-96) or GST-ELK1 (aa 307-428). GST-fusion proteins were purchased from Stratagene (La Jolla, Calif.).
Ten μL of glutathione-agarose beads were also added to the mixture. Reaction products were then separated by SDS-PAGE on a denaturing 10% polyacrylamide gel. Gels were dried and subsequently exposed to X-ray films (Kodak). […] The ability of D-TAT, inventive D-TAT-IB1(s) and inventive L-TAT-IB1(s) peptides (0-250 μM dosage study) to inhibit GST-Jun (aa 1-73) phosphorylation by recombinant JNK1, JNK2, and JNKS by were analyzed as described above. Overall, D-TAT-IB1(s) peptide decreased JNK-mediated phosphorylation of c-Jun, but at levels approximately 10-20 fold less efficiently than L-TAT-IB1(s).

The nature of test [4]: Focal cerebral ischaemia, transient MCAO model, infarct volume. The conditions noted are these: i.v. administration, FIG. 4. It counts as in vivo, male ICR-CD1 mice. The source says:
Evaluation of neuroprotection by inventive chimeric peptides after iv administration against focal cerebral ischaemia, in a transient MCAO model (see FIG. 4).
Transient ischemia in adult mice. Using male ICR-CD1 mice (6 weeks old; 18-37 g; Harlan), we provoked ischemia by introducing a filament from the common carotid artery into the internal carotid and advancing it into the arterial circle, thereby occluding the middle cerebral artery. We measured regional cerebral blood flow by laser Doppler flowmetry, with a probe fixed on the skull throughout the ischemia until 10 min after reperfusion. Rectal temperature was measured and maintained at 37° C. The mice were killed 48 h after reperfusion. Serial cryostat sections 20 μm thick were traced using a computer-microscope system equipped with the Neurolucida program (MicroBrightField) and the volumes of the ischemic area and of the whole brain were calculated (blinded) with the Neuroexplorer program. XG−102 0.3=0.3 mg/kg,XG−102 1=1 mg/kg, XG−102 5=5 mg/kg
The infarct volume sizes (mm^3) after bolus iv administration of placebo and XG-102 0.3, […] 6 hours after reperfusion (30 minutes clamp) in an adult mice model were as follows.

In the case of `CC(C)C[C@@H](NC(=O)[C@@H](Cc1ccccc1)NC(=O)[C@H]1CCCN1C(=O)[C@@H](CCC(N)=O)NC(=O)[C@H](NC(=O)[C@H]1CCCN1C(=O)[C@@H](CCCNC(=N)N)NC(=O)[C@@H](CO)NC(=O)[C@@H](CCC(N)=O)NC(=O)[C@H](N)CC(=O)O)C(C)C)C(=O)N[C@H](CC(N)=O)C(=O)N[C@H](CC(C)C)C(=O)N[C@@H](C(=O)N[C@@H](C(=O)N1CCC[C@@H]1C(=O)N[C@H](CCCNC(=N)N)C(=O)N[C@H](CCCCN)C(=O)N1CCC[C@@H]1C(=O)N[C@H](CCCNC(=N)N)C(=O)N1CCC[C@@H]1C(=O)N1CCC[C@@H]1C(=O)N[C@H](CCCNC(=N)N)C(=O)N[C@H](CCCNC(=N)N)C(=O)N[C@H](CCCNC(=N)N)C(=O)N[C@H](CCC(N)=O)C(=O)N[C@H](CCCNC(=N)N)C(=O)N[C@H](CCCNC(=N)N)C(=O)N[C@H](CCCCN)C(=O)N[C@H](CCCCN)C(=O)N[C@H](CCCNC(=N)N)C(=O)NCC(=O)O)[C@H](C)O)[C@H](C)O` [D-TAT-IB1(s)] (H-[dD][dQ][dS][dR][dP][dV][dQ][dP][dF][dL][dN][dL][dT][dT][dP][dR][dK][dP][dR][dP][dP][dR][dR][dR][dQ][dR][dR][dK][dK][dR]G-OH), in test [1], the “inhibition of endogenous JNK activity” value is on record as “effectively inhibits JNK activity, even better than L-TAT-IB1(s)”. Also, in test [2], the “prevention of irradiation induced apoptosis” value is “able to prevent irradiation induced apoptosis”. Besides, the “efficiency in decreasing JNK-mediated phosphorylation of c-Jun, fold less efficient than L-TAT-IB1(s)” value in test [3] was 10-20 fold. The “neuroprotection (infarct volumes)” value in test [4] was “provides efficient neuroprotection”.
